Residue numbers refer to the chain shown, from its start.

What all share (test): HPLC, […] nm; lactonase buffer kinetic assay (method of Thomas et al.)
Common to all, as to type: biochemical
Common to all, as to conditions: 30 °C; lactone hydrolysis

Assay [1] deals with T1, Est816 (uncultured bacterium, UniProt Z9COY3ZA92, P27G/F28N, form not given).
T1 construct: full length, C-terminal 6xHis tag (pET-21b), E. coli BL21(DE3); catalytic triad S93, D214, H242
T1 sequence (Z9COY3ZA92 1-260 P27G/F28N): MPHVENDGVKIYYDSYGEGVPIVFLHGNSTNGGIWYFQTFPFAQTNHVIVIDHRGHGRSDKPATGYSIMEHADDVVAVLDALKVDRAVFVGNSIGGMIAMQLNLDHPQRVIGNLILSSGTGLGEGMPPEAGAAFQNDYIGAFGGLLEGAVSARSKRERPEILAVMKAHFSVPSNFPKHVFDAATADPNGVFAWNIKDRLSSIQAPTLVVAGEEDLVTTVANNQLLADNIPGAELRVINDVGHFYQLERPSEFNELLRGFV

Assay [2] concerns the target T2, Est816 (uncultured bacterium, UniProt Z9COY3ZA92, A133F/K155N/V216F, form not given).
T2 construct: full length, C-terminal 6xHis tag (pET-21b), E. coli BL21(DE3); catalytic triad S93, D214, H242
T2 sequence (Z9COY3ZA92 1-260 A133F/K155N/V216F): T1 sequence (Z9COY3ZA92 1-260 P27G/F28N) with G27P, N28F, A133F, K155N, V216F

The target in assay [3] is T3, Est816 (uncultured bacterium, UniProt Z9COY3ZA92, N238K, form not given).
T3 construct: full length, C-terminal 6xHis tag (pET-21b), E. coli BL21(DE3); catalytic triad S93, D214, H242
T3 sequence (Z9COY3ZA92 1-260 N238K): T1 sequence (Z9COY3ZA92 1-260 P27G/F28N) with G27P, N28F, N238K

Assay [4] addresses T4, Est816 (uncultured bacterium, UniProt Z9COY3ZA92, V216A/N238K, form not given).
T4 construct: full length, C-terminal 6xHis tag (pET-21b), E. coli BL21(DE3); catalytic triad S93, D214, H242
T4 sequence (Z9COY3ZA92 1-260 V216A/N238K): T1 sequence (Z9COY3ZA92 1-260 P27G/F28N) with G27P, N28F, V216A, N238K

Assay [5] deals with T5, Est816 (uncultured bacterium, UniProt Z9COY3ZA92, L122A, form not given).
T5 construct: full length, C-terminal 6xHis tag (pET-21b), E. coli BL21(DE3); catalytic triad S93, D214, H242
T5 sequence (Z9COY3ZA92 1-260 L122A): T1 sequence (Z9COY3ZA92 1-260 P27G/F28N) with G27P, N28F, L122A

Assay [6] deals with T6, Est816 (uncultured bacterium, UniProt Z9COY3ZA92, A133V/K155N, form not given).
T6 construct: full length, C-terminal 6xHis tag (pET-21b), E. coli BL21(DE3); catalytic triad S93, D214, H242
T6 sequence (Z9COY3ZA92 1-260 A133V/K155N): T1 sequence (Z9COY3ZA92 1-260 P27G/F28N) with G27P, N28F, A133V, K155N

The target in assay [7] is T7, Est816 (uncultured bacterium, UniProt Z9COY3ZA92, V216A, form not given).
T7 construct: full length, C-terminal 6xHis tag (pET-21b), E. coli BL21(DE3); catalytic triad S93, D214, H242
T7 sequence (Z9COY3ZA92 1-260 V216A): T1 sequence (Z9COY3ZA92 1-260 P27G/F28N) with G27P, N28F, V216A

In the case of `CCCCCCCC(=O)NC1CCOC1=O` (racemic) [C8-HSL, N-octanoyl-DL-homoserine lactone], the Km on Est816 [1] is 3090 ± 198 µM; at Est816 [2], 759 ± 62.2 µM; on Est816 [3], 210 ± 15.5 µM; at Est816 [4] it was 1140 ± 101 µM; at Est816 [5], 105 ± 7.2 µM; at Est816 [6] it was 3490 ± 146 µM. Besides, the Km at Est816 [7] stood at 5800 ± 289 µM.

What is called Km is the substrate concentration at which the rate is half of its maximum.

For the origin of these results see PMC5133562, “Engineering of a thermostable esterase Est816 to improve its quorum-quenching activity and the underlying structural basis” (Scientific Reports, 2016).
